# Results reported in US10544113B2 (priority 2016, dated 2020).
# Where two headings read alike, the source gives them in different places.
# Biological target: mu-opioid receptor (MOR) (Homo sapiens (Human), UniProt P35372)
# Test: cell-based
# Details: for AUC: AUC of [Ca2+]i fluorescence
# [1] = CHO-K1/MOR/Gα15 cells, combined with a MOR antagonist
# [2] = EC50, CHO-K1/MOR/Gα15 cells, combined with a MOR antagonist
# [3] = combined with a MOR antagonist, read-out: FLIPR Ca^2+ EC50
# mu-opioid receptor (MOR), sequence (P35372 whole entry): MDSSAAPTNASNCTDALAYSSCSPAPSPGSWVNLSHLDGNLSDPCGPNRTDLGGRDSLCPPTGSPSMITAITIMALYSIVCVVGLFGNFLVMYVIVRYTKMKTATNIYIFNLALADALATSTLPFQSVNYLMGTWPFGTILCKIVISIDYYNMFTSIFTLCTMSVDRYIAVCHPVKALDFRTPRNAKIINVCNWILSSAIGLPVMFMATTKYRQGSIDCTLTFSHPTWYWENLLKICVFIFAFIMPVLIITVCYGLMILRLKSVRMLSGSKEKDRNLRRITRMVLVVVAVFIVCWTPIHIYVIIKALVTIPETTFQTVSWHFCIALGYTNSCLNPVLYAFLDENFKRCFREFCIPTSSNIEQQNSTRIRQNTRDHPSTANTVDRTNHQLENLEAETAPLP
Compound,AUC [1],EC50 [2] [µM],FLIPR Ca^2+ AUC (combined with a MOR antagonist),EC50 [3] [µM],"EC50 (FLIPR Ca^2+ EC50, combined with a MOR antagonist) [µM]","EC50 (CHO-K1/MOR/Gα15 cells, combined with a MOR antagonist, read-out: EC50) [µM]"
CC(=O)Nc1ccc(S(=O)(=O)NC(=O)c2ccc(N3C(=O)CSC3c3ccc(F)cc3)c(C)c2)cc1 (stereo not shown) [Example 202],more than 5000,< 10,17087,0.6,–,–
Cc1cc(C(=O)NS(=O)(=O)c2ccc(F)cc2)ccc1N1C(=O)CSC1c1ccc(F)cc1 (stereo not shown) [Example 196],more than 5000,< 10,15620,1.1,–,–
Cc1cc(C)c(S(=O)(=O)NC(=O)c2ccc(N3C(=O)CSC3c3ccc(F)cc3)c(C)c2)c(C)c1 (stereo not shown) [Example 192],more than 5000,< 10,11866,1.4,–,–
Cc1cc(C(=O)NC2CCC2)ccc1N1C(=O)CSC1c1ccc(F)cc1 (stereo not shown) [Example 337],–,< 10,8936,0.3,–,–
Cc1cc(C(=O)NCc2cc(F)cc(F)c2)ccc1N1C(=O)CSC1c1ccc(F)cc1 (stereo not shown) [Example 381],more than 5000,< 10,6035,8.2,–,–
Cc1cc(C(=O)OCCN2CCCCC2)ccc1N1C(=O)CSC1c1ccc(F)cc1 (stereo not shown) [Example 295],–,–,10426,2.8,–,–
COc1cc(CNC(=O)c2ccc(N3C(=O)CSC3c3ccc(F)cc3)c(C)c2)cc(OC)c1 (stereo not shown) [Example 380],more than 5000,< 10,10013,8.2,–,–
"[2H]C1(c2ccc(F)cc2)SCC(=O)N1c1ccc(C(=O)OCC)cc1C (stereo not shown) [Example 583, Ethyl 4-[2-(4-fluorophenyl)-4-oxo-2-d1-1,3-thiazolidin-3-yl]-3-methylbenzoate]",more than 5000,< 10,11275,–,4.42,–
Cc1cc(C(=O)NS(=O)(=O)C2CC2)ccc1N1C(=O)CSC1c1ccc(F)cc1 (stereo not shown) [Example 169],more than 5000,< 10,13189,3,–,–
Cc1cc(C(=O)O)ccc1N1C(=O)CSC1c1cccc(F)c1 (stereo not shown) [Example 60],–,–,20700,1.1,–,–
Cc1cc(C(=O)NN)ccc1N1C(=O)CSC1c1ccc(F)cc1 (stereo not shown) [Example 220],–,–,13871,4.9,–,–
Cc1ccc(F)cc1N1C(=O)CSC1c1ccc(Cl)c(F)c1 (stereo not shown) [Example 123],–,–,4228,0.5,–,–
Cc1cc(C(=O)OCC2CCCC2)ccc1N1C(=O)CSC1c1ccc(F)cc1 (stereo not shown) [Example 239],–,< 10,4342,9.4,–,–
COc1ccc(N2C(=O)CSC2c2ccc(F)cc2)c(C)c1 (stereo not shown) [Example 47],–,< 10,–,–,–,–
Cc1cc(C(=O)NS(=O)(=O)c2ccc(Cl)cc2F)ccc1N1C(=O)CSC1c1ccc(F)cc1 (stereo not shown),more than 5000,< 10,15287,0.1,–,–
Cc1cc(C(=O)OCCN2CCOCC2)ccc1N1C(=O)CSC1c1ccc(F)cc1 (stereo not shown) [Example 296],–,–,14052,2.3,–,–
Cc1cc(S(=O)(=O)NC(=O)c2ccc(N3C(=O)CSC3c3ccc(F)cc3)c(C)c2)c(C)cc1Cl (stereo not shown) [Example 208],–,< 10,–,–,–,–
Cc1ccc(Cl)cc1N1C(=O)CSC1c1ccc(F)cc1 (stereo not shown) [Example 147],more than 5000,< 10,11516,3.2,–,–
Cc1cc(C(=O)O)ccc1N1C(=O)CSC1c1ccc(F)c(F)c1 (stereo not shown) [Example 62],more than 5000,< 10,21586,1.6,–,–
Cc1cc(C(=O)NS(=O)(=O)Cc2cccc(F)c2)ccc1N1C(=O)CSC1c1ccc(F)cc1 (stereo not shown) [Example 177],–,–,16276,2.2,–,–
Cc1cc(C(=O)OCCCN2CCOCC2)ccc1N1C(=O)CSC1c1ccc(F)cc1 (stereo not shown) [Example 297],–,–,13753,8.1,–,–
Cc1cc(C(=O)NCCN(C)C)ccc1N1C(=O)CSC1c1ccc(F)cc1 (stereo not shown) [Example 340],–,–,9445,10,–,–
Cc1cc(C(=O)OCC2COC(C)(C)O2)ccc1N1C(=O)CSC1c1ccc(F)cc1 (stereo not shown) [Example 276],–,< 10,15090,6.3,–,–
Cc1cc(C(=O)NCCCN(C)C)ccc1N1C(=O)CSC1c1ccc(F)cc1 (stereo not shown) [Example 342],–,–,16741,3.3,–,–
CCNC(=O)c1ccc(N2C(=O)CSC2c2ccc(F)cc2)c(C)c1 (stereo not shown) [Example 335],–,< 10,11180,4.2,–,–
COC[C@@H]1CCCN1C(=O)c1ccc(N2C(=O)CSC2c2ccc(F)cc2)c(C)c1 (stereo partly shown) [Example 355],–,–,12691,10,–,–
COc1cccc(NC(=O)c2ccc(N3C(=O)CSC3c3ccc(F)cc3)c(C)c2)c1 (stereo not shown) [Example 368],more than 5000,< 10,8915,6.7,–,–

Compound,AUC [1],EC50 [2] [µM],FLIPR Ca^2+ AUC (combined with a MOR antagonist),EC50 [3] [µM],"EC50 (FLIPR Ca^2+ EC50, combined with a MOR antagonist) [µM]","EC50 (CHO-K1/MOR/Gα15 cells, combined with a MOR antagonist, read-out: EC50) [µM]"
Cc1ccc(F)cc1N1C(=O)CSC1c1cccc(F)c1 (stereo not shown) [Example 113],–,< 10,–,–,–,–
Cc1cc(C(=O)OCCOCCN2CCCC2)ccc1N1C(=O)CSC1c1ccc(F)cc1 (stereo not shown) [Example 307],more than 5000,< 10,14731,8.7,–,–
Cc1cc(C(=O)OCCCN2CCCCC2)ccc1N1C(=O)CSC1c1ccc(F)cc1 (stereo not shown) [Example 298],–,–,9283,1.7,–,–
"COc1cc(F)c(F)cc1N1C(=O)CSC1c1ccc(F)cc1 (stereo not shown) [Example 10, 3-(4,5-Difluoro-2-methoxyphenyl)-2-(4-fluorophenyl)thiazolidin-4-one]",–,< 10,6152,2,–,–
Cc1c(F)cccc1N1C(=O)CSC1c1ccc(F)cc1 (stereo not shown) [Example 109],–,–,9614,2.6,–,–
"COc1ccc(N2C(=O)CSC2c2ccc(F)cc2)c(OC)c1 (stereo not shown) [Example 8, 3-(2,4-Dimethoxyphenyl)-2-(4-fluorophenyl)thiazolidin-4-one]",–,< 10,–,–,–,–
Cc1cc(C(=O)N2CC[C@@H](N(C)C)C2)ccc1N1C(=O)CSC1c1ccc(F)cc1 (stereo partly shown) [Example 349],–,–,11923,10,–,–
Cc1cc(C(=O)O)ccc1N1C(=O)CSC1c1cc(F)cc(F)c1 (stereo not shown) [Example 64],more than 5000,< 10,9368,6,–,–
Cc1cc(-c2nnn[nH]2)ccc1N1C(=O)CSC1c1ccc(F)cc1 (stereo not shown) [Example 221],–,–,8284,0.2,–,–
"Cc1cc(C(O)C(F)(F)F)ccc1N1C(=O)CSC1c1ccc(F)cc1 (stereo not shown) [Example 600, 2-(4-Fluorophenyl)-3-[2-methyl-4-(2,2,2-trifluoro-1-hydroxyethyl)phenyl]-1,3-thiazolidin-4-one]",more than 5000,< 10,13110,6.75,–,–
Cc1cc(C(=O)OCCCN(C)C)ccc1N1C(=O)CSC1c1ccc(F)cc1 (stereo not shown) [Example 291],–,–,8913,1.9,–,–
Cc1cc(C(=O)N2CCC(N)CC2)ccc1N1C(=O)CSC1c1ccc(F)cc1 (stereo not shown) [Example 357],–,< 10,12663,10,–,–
"COc1cc(C(=O)O)ccc1N1C(=O)CSC1c1ccc(F)cc1 (stereo not shown) [Example 12, 4-[2-(4-Fluoro-phenyl)-4-oxo-thiazolidin-3-yl]-3-methoxy-benzoic acid]",–,–,12252,10.6,–,–
CCCCOC(=O)c1ccc(N2C(=O)CSC2c2ccc(F)cc2)c(C)c1 (stereo not shown) [Example 234],–,–,10062,9,–,–
Cc1c(N2C(=O)CSC2c2ccc(F)cc2)c(=O)n(-c2ccccc2)n1C (stereo not shown) [Example 411],more than 5000,–,8099,20,–,–
Cc1cc(C(=O)OC2(C)CC2)ccc1N1C(=O)CSC1c1ccc(F)cc1 (stereo not shown) [Example 236],–,–,13348,4.7,–,–
Cc1cc(N(C)C)ccc1N1C(=O)CSC1c1ccc(F)cc1 (stereo not shown) [Example 53],–,–,6407,0.5,–,–
Cc1cc(C(=O)NS(=O)(=O)C(F)(F)F)ccc1N1C(=O)CSC1c1ccc(F)cc1 (stereo not shown) [Example 175],–,–,13866,1.6,–,–
N#Cc1cc(F)c(N2C(=O)CSC2c2ccc(F)cc2)c(F)c1 (stereo not shown) [Example 43],more than 5000,–,12926,11.2,–,–
"COc1c(F)cc(F)cc1N1C(=O)CSC1c1ccc(F)cc1 (stereo not shown) [Example 11, 3-(3,5-Difluoro-2-methoxyphenyl)-2-(4-fluorophenyl)thiazolidin-4-one]",–,< 10,–,–,–,–
Cc1ccc(F)cc1N1C(=O)CSC1c1ccc(F)cc1 (stereo not shown) [Example 112],–,< 10,–,–,–,–
CCOC(=O)c1ccc(N2C(=O)CSC2c2ccc(F)cc2)c(C)c1 (stereo not shown) [Example 152],more than 5000,–,14743,6.3,–,< 10
Cc1cc(C(=O)OCC2CCCO2)ccc1N1C(=O)CSC1c1ccc(F)cc1 (stereo not shown) [Example 275],–,–,11236,26.9,–,–
Cc1cc(C(=O)NCc2cc(F)ccc2F)ccc1N1C(=O)CSC1c1ccc(F)cc1 (stereo not shown) [Example 376],–,–,8823,1,–,–
"CCOC(=O)c1ccc(N2C(=O)CSC2c2ccc(F)cc2)c(C)n1 (stereo not shown) [Example 635, Ethyl 5-[2-(4-fluorophenyl)-4-oxo-1,3-thiazolidin-3-yl]-6-methylpyridine-2-carboxylate]",more than 5000,–,9843,10.9,–,–
Cc1cc(C(=O)OCC(F)(F)F)ccc1N1C(=O)CSC1c1ccc(F)cc1 (stereo not shown) [Example 286],more than 5000,< 10,13001,9.2,–,–
Cc1cc(C(=O)OCCOCc2ccccc2)ccc1N1C(=O)CSC1c1ccc(F)cc1 (stereo not shown) [Example 258],more than 5000,< 10,6353,3.3,–,–
